According to patent publication US4177282A, “Hydantoin therapeutic agents” (priority 1978, dated 1979):
Counter-ions that a name gives are not always drawn. One block for each compound: values may come before it.

Tests used:
[1] = system: sorbitol accumulation in the sciatic nerve of streptozotocinized (i.e., diabetic) rats; experiment: inhibition of sorbitol accumulation in the sciatic nerve of streptozotocinized (diabetic) rats; format: in vivo, rat; details: measured at 27 hours, vs untreated
Method: (§1) The activity of the compounds of the present invention, as agents for the control of chronic diabetic complications, is determined by their ability to successfully pass one or more of the following standard biological and/or pharmacological tests, viz., (1) measuring their ability to inhibit the enzyme activity of isolated aldose reductase; (2) measuring their ability to reduce or inhibit sorbitol accumulation in the sciatic nerve of acutely streptozotocinized (i.e., diabetic) rats; (3) measuring their ability to reverse alredy-elevated sorbitol levels in the sciatic nerve and lens of chronic streptozotocin-induced diabetic rats; (4) measuring their ability to prevent or inhibit galactitol formation in the lens of acutely galactosemic rats, and (5) measuring their ability to delay cataract formation and reduce the severity of lens opacities in chronic galactosemic rats.
The following spiro-hydantoin compounds of Preparations B and C and Examples I-II, respectively, were tested for their ability to reduce or inhibit sorbitol accumulation in the sciatic nerve of streptozotocinized (i.e., diabetic) rats by the procedure essentially described in U.S. Pat. No. 3,821,383. In the present study, the amount of sorbitol accumulation in the sciatic nerves was measured 27 hours after induction of diabetes. The compounds were administered orally at the dose levels indicated 4, 8 and 24 hours following the administration of streptozotocin. The results obtained in this manner are presented below in terms of percent inhibition (%) afforded by the test compound as compared to the case where no compound was administered (i.e., the untreated animal where sorbitol levels normally rise from approximately 50-100 mM/g. tissue to as high as 400 mM/g. tissue in the 27-hour test period): […]

[2] = molecular target: T1, partially purified aldose reductase enzyme obtained from calf lens (Bos taurus, UniProt P16116); experiment: inhibition of isolated aldose reductase enzyme activity (procedure of S. Hayman et al., as modified by K. Sestanj et al.); format: biochemical; details: for inhibition at 100 µM / inhibition at 10 µM / inhibition at 1 µM / inhibition at 0.1 µM / Percent Inhibition (%) of aldose reductase enzyme activity: calf lens enzyme; for inhibition at 100 µM / inhibition at 10 µM / inhibition at 1 µM / inhibition at 0.1 µM: read-out: Percent Inhibition (%) of aldose reductase enzyme activity
T1 construct: partially purified aldose reductase enzyme obtained from calf lens; from tissue; host or cells: calf lens
Method: as §1
In every case, the substrate employed was partially purified aldose reductase enzyme obtained from calf lens.

[3] = system: sorbitol levels in the sciatic nerve and lens of diabetic subjects; experiment: lowering of sorbitol levels in the sciatic nerve and lens of diabetic subjects; format: in vivo, rat
Method: as §1

[4] = system: galactitol levels in the lens of galactosemic subjects; experiment: lowering of galactitol levels in the lens of galactosemic subjects; format: in vivo, rat
Method: as §1

[5] = system: sorbitol levels in diabetic rats; experiment: control (inhibition) of formation of sorbitol levels in diabetic rats, oral; format: in vivo, rat; details: 0.25 mg./kg. to 5.0 mg./kg.
Source text: As previously indicated, the dextrorotatory spiro-hydantoin compounds of this invention are all readily adapted to therapeutic use as aldose reductase inhibitors for the control of chronic diabetic complications, in view of their ability to reduce lens sorbitol levels in diabetic subjects to a statistically significant degree. […] The other compounds of this invention also cause similar results. Furthermore, the herein described compounds of this invention can be administered by either the oral or parenteral routes of administration, for the present purposes at hand, without causing any significant untoward pharmacological side reactions to occur in the subject to whom they are so administered. In general, these compounds are ordinarily administered in dosages ranging from about 0.05 mg. to about 5.0 mg. per kg. of body weight per day, although variations will necessarily occur depending upon the weight and condition of the subject being treated and the particular route of administration chosen.

solubility in water = format: physicochemical; details: amorphous powder, freeze-dried
[6] = 0.25 mg./kg. orally at 4, 8 and 24 hours after streptozotocin
[7] = 0.75 mg./kg. orally at 4, 8 and 24 hours after streptozotocin
[8] = 1.5 mg./kg. orally at 4, 8 and 24 hours after streptozotocin
[9] = 2.5 mg./kg. orally at 4, 8 and 24 hours after streptozotocin

- inhibition at 100 µM ([2]; 10^-4 M): 85%
- inhibition at 10 µM ([2]; 10^-5 M): 58%
- inhibition at 1 µM ([2]; 10^-6 M): 52%
- inhibition at 0.1 µM ([2]; 10^-7 M): 3%
SMILES: O=C1NC(=O)C2(CCOc3ccc(F)cc32)N1 (racemic) [dl-Cpd. of Prep. B, dl-6-fluoro-spiro-[chroman-4,4'-imidazolidine]-2',5'-dione]
- Percent Inhibition (%) of sorbitol accumulation in the sciatic nerve [1, 6]: 19%
- Percent Inhibition (%) of sorbitol accumulation in the sciatic nerve [1, 7]: 45%
- Percent Inhibition (%) of sorbitol accumulation in the sciatic nerve [1, 8]: 72%

- Percent Inhibition (%) of aldose reductase enzyme activity ([2]; 10^-4 M): 88%
- Percent Inhibition (%) of aldose reductase enzyme activity ([2]; 10^-5 M): 63%
- Percent Inhibition (%) of aldose reductase enzyme activity ([2]; 10^-6 M): 23%
- Percent Inhibition (%) of aldose reductase enzyme activity ([2]; 10^-7 M): -4%
SMILES: O=C1NC(=O)C2(CCOc3ccc(F)cc32)N1 (single isomer, unassigned) [1-Isomer of Ex. I, l-6-fluoro-spiro-[chroman-4,4'-imidazolidine]-2',5'-dione]
- Percent Inhibition (%) of sorbitol accumulation in the sciatic nerve [1, 7]: 19%
- Percent Inhibition (%) of sorbitol accumulation in the sciatic nerve [1, 9]: 6%
- Percent Inhibition (%) of sorbitol accumulation in the sciatic nerve ([1]; 5.0 mg./kg. orally at 4, 8 and 24 hours after streptozotocin): 22%

- aldose reductase inhibitory activity (in words) [2]: extremely potent
- inhibition at 100 µM ([2]; 10^-4 M): 100%
- Percent Inhibition (%) of aldose reductase enzyme activity ([2]; 10^-6 M): 98%
- Percent Inhibition (%) of aldose reductase enzyme activity ([2]; 10^-7 M): 39%
SMILES: O=C1NC(=O)C2(CCOc3ccc(F)cc32)N1 (single isomer, unassigned) [d-Isomer of Ex. I, d-6-fluoro-spiro-[chroman-4,4'-imidazolidine]-2',5'-dione]
- Percent Inhibition (%) of sorbitol accumulation in the sciatic nerve [1, 6]: 47%
- Percent Inhibition (%) of sorbitol accumulation in the sciatic nerve [1, 7]: 78%
- lowering sorbitol levels in the sciatic nerve and lens (in words) [3]: equally effective in lowering sorbitol levels in the sciatic nerve and lens of diabetic subjects
- lowering galactitol levels in the lens (in words) [4]: to a very significantly high degree
- control (i.e., inhibit) the formation of sorbitol levels (in words) [5]: to a significantly high degree

- solubility in water (in words) (solubility in water): freely soluble in water
SMILES: O=C1NC(=O)C2(CCOc3ccc(F)cc32)N1 (single isomer, unassigned) [sodium salt of d-6-fluoro-spiro-[chroman-4,4'-imidazolidine]-2',5'-dione]

The remaining lines, values behind:

SMILES: O=C1NC(=O)C2(CCSc3ccc(F)cc32)N1 (racemic) [dl-Cpd. of Prep. C, dl-6'-fluoro-spiro-[imidazolidine-4,4'-thiochroman]-2,5-dione]
- Percent Inhibition (%) of sorbitol accumulation in the sciatic nerve [1, 7]: 13%
- Percent Inhibition (%) of sorbitol accumulation in the sciatic nerve [1, 8]: 45%
- Percent Inhibition (%) of sorbitol accumulation in the sciatic nerve [1, 9]: 74%
- inhibition at 100 µM ([2]; 10^-4 M): 81%
- inhibition at 10 µM ([2]; 10^-5 M): 77%
- inhibition at 1 µM ([2]; 10^-6 M): 66%
- inhibition at 0.1 µM ([2]; 10^-7 M): 38%

SMILES: O=C1NC(=O)C2(CCSc3ccc(F)cc32)N1 (single isomer, unassigned) [1-Isomer of Ex. II, l-6'-fluoro-spiro-[imidazolidine-4,4'-thiochroman]-2,5-dione]
- Percent Inhibition (%) of aldose reductase enzyme activity ([2]; 10^-4 M): 87%
- Percent Inhibition (%) of aldose reductase enzyme activity ([2]; 10^-5 M): 65%
- Percent Inhibition (%) of aldose reductase enzyme activity ([2]; 10^-6 M): 11%
- Percent Inhibition (%) of aldose reductase enzyme activity ([2]; 10^-7 M): 10%

SMILES: O=C1NC(=O)C2(CCSc3ccc(F)cc32)N1 (single isomer, unassigned) [d-Isomer of Ex. II, d-6'-fluoro-spiro-[imidazolidine-4,4'-thiochroman]-2,5-dione]
- Percent Inhibition (%) of sorbitol accumulation in the sciatic nerve [1, 7]: 55%
- lowering sorbitol levels in the sciatic nerve and lens (in words) [3]: equally effective in lowering sorbitol levels in the sciatic nerve and lens of diabetic subjects
- lowering galactitol levels in the lens (in words) [4]: to a very significantly high degree
- aldose reductase inhibitory activity (in words) [2]: extremely potent
- inhibition at 100 µM ([2]; 10^-4 M): 89%
- inhibition at 10 µM ([2]; 10^-5 M): 80%
- Percent Inhibition (%) of aldose reductase enzyme activity ([2]; 10^-6 M): 76%
- Percent Inhibition (%) of aldose reductase enzyme activity ([2]; 10^-7 M): 74%
